From PubChem BioAssay AID330 (DTP/NCI, 2004)
Where “and” joins values, the source holds several entries; their conditions need not be identical. Equal values may be shown once. Inconclusive results and toxic doses are left out.

System: P388 leukemia ip, CD2F1 mice, survival T/C
Experiment: NCI In Vivo Anticancer Drug Screen. Data for tumor model P388 Leukemia (intraperitoneal) in CD2F1 (CDF1) mice
Conditions: endpoint: median survival time, higher = longer survival
Summary of the method: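 Mice carrying the transplanted tumor received test compound or vehicle. Survival was recorded in each group, and the value is the treated-group measurement divided by that of the vehicle-treated control group.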

[1] = dose: 100.0 mg/kg/injection, schedule: Q04DX003 (ip), vehicle: Klucel (hydroxypropylcellulose) (HPC)
[2] = dose: 200.0 mg/kg/injection, schedule: Q04DX003 (ip), vehicle: Klucel (hydroxypropylcellulose) (HPC)

For C=C(C)[C@@H]1CC[C@](C)(CCC#N)/C(=N\NC(N)=O)C1, the T/C [1] was 99 % of control, the T/C [2] was 102 % of control and the T/C (dose: 400.0 mg/kg/injection, schedule: Q04DX003 (ip), vehicle: Klucel (hydroxypropylcellulose) (HPC)) was 89 % of control.
In the case of Cc1nnc2c(c(=O)n(C)c(=O)n2C)[n+]1[O-], the T/C (dose: 12.5 mg/kg/injection, schedule: Q01DX001 (ip), vehicle: saline) is reported as 105 % of control, the T/C (dose: 25.0 mg/kg/injection, schedule: Q01DX001 (ip), vehicle: saline) is reported as 109 % of control and the T/C (dose: 50.0 mg/kg/injection, schedule: Q01DX001 (ip), vehicle: saline) is reported as 106 % of control.
For Cc1cc(CC(O)(c2ccccc2)c2ccccc2)nc2[nH]c(=O)ccc12, the T/C (dose: 25.0 mg/kg/injection, schedule: Q01DX005 (ip), vehicle: Klucel (hydroxypropylcellulose) (HPC)) was 97 % of control, the T/C (dose: 50.0 mg/kg/injection, schedule: Q01DX005 (ip), vehicle: Klucel (hydroxypropylcellulose) (HPC)) was 103 % of control and the T/C (dose: 100.0 mg/kg/injection, schedule: Q01DX005 (ip), vehicle: Klucel (hydroxypropylcellulose) (HPC)) was 98 % of control. The T/C (dose: 200.0 mg/kg/injection, schedule: Q01DX005 (ip), vehicle: Klucel (hydroxypropylcellulose) (HPC)) was 96 % of control.
COc1ccc(CCN2C(=O)C(=O)N(C(C)C)C2=O)cc1OC was tested, and the T/C (dose: 50.0 mg/kg/injection, schedule: Q01DX009 (ip), vehicle: Klucel (hydroxypropylcellulose) (HPC)) was 86 % of control, the T/C (dose: 100.0 mg/kg/injection, schedule: Q01DX009 (ip), vehicle: Klucel (hydroxypropylcellulose) (HPC)) was 91 % of control and the T/C (dose: 200.0 mg/kg/injection, schedule: Q01DX009 (ip), vehicle: Klucel (hydroxypropylcellulose) (HPC)) was 95 % of control.
For Cc1ncc([N+](=O)[O-])n1CCO, the T/C (dose: 16.0 mg/kg/injection, schedule: Q01DX009 (ip), vehicle: saline with Tween-80) was 112 % of control, the T/C (dose: 32.0 mg/kg/injection, schedule: Q01DX009 (ip), vehicle: saline with Tween-80) was 108 % of control and the T/C (dose: 50.0 mg/kg/injection, schedule: Q01DX009 (ip), vehicle: saline with Tween-80) was 98 % of control. The T/C (dose: 64.0 mg/kg/injection, schedule: Q01DX009 (ip), vehicle: saline with Tween-80) was 102 % of control and 108 % of control, the T/C (dose: 100.0 mg/kg/injection, schedule: Q01DX009 (ip), vehicle: saline with Tween-80) was 118 % of control and the T/C (dose: 128.0 mg/kg/injection, schedule: Q01DX009 (ip), vehicle: saline with Tween-80) was 100 % of control and 109 % of control. The T/C (dose: 200.0 mg/kg/injection, schedule: Q01DX009 (ip), vehicle: saline with Tween-80) was 107 % of control, the T/C (dose: 250.0 mg/kg/injection, schedule: Q01DX001 (ip), vehicle: saline with Tween-80) was 103 % of control and the T/C (dose: 256.0 mg/kg/injection, schedule: Q01DX009 (ip), vehicle: saline with Tween-80) was 108 % of control. For the same compound, the T/C (dose: 360.0 mg/kg/injection, schedule: Q01DX001 (ip), vehicle: saline with Tween-80) was 100 % of control and 103 % of control, the T/C (dose: 400.0 mg/kg/injection, schedule: Q01DX009 (ip), vehicle: saline with Tween-80) was 111 % of control and the T/C (dose: 500.0 mg/kg/injection, schedule: Q01DX001 (ip), vehicle: saline with Tween-80) was 103 % of control. For the same compound, the T/C (dose: 512.0 mg/kg/injection, schedule: Q01DX009 (ip), vehicle: saline with Tween-80) was 100 % of control, the T/C (dose: 600.0 mg/kg/injection, schedule: Q01DX001 (ip), vehicle: saline with Tween-80) was 100 % of control and 97 % of control and the T/C (dose: 1000.0 mg/kg/injection, schedule: Q01DX001 (ip), vehicle: saline with Tween-80) was 102 % of control and 104 % of control and 101 % of control. For the same compound, the T/C (dose: 2000.0 mg/kg/injection, schedule: Q01DX001 (ip), vehicle: saline with Tween-80) was 99 % of control.
For Cc1ccc(S(=O)(=O)NN=C2[C@H]3CC=CC[C@H]3C(=NNS(=O)(=O)c3ccc(C)cc3)[C@@H]3CC=CC[C@H]23)cc1, the T/C (dose: 50.0 mg/kg/injection, schedule: Q01DX005 (ip), vehicle: saline with Tween-80) was 90 % of control, the T/C (dose: 100.0 mg/kg/injection, schedule: Q01DX005 (ip), vehicle: saline with Tween-80) was 87 % of control and the T/C (dose: 200.0 mg/kg/injection, schedule: Q01DX005 (ip), vehicle: saline with Tween-80) was 103 % of control.
For CNS(=O)(=O)c1ccc(Cl)cc1, the T/C (dose: 3.13 mg/kg/injection, schedule: Q01DX009 (ip), vehicle: saline) was 94 % of control, the T/C (dose: 6.25 mg/kg/injection, schedule: Q01DX009 (ip), vehicle: saline) was 99 % of control and the T/C (dose: 12.5 mg/kg/injection, schedule: Q01DX009 (ip), vehicle: saline) was 98 % of control. The T/C (dose: 25.0 mg/kg/injection, schedule: Q01DX009 (ip), vehicle: saline) was 98 % of control.
CCN(CCO)CC(O)Cn1cnc2ncnc(N)c21 (stereo unspecified) (tested in a mixture with another compound) was tested, and the T/C (dose: 60.0 mg/kg/injection, schedule: Q01DX005 (ip), vehicle: Klucel (hydroxypropylcellulose) (HPC)) was 97 % of control, the T/C (dose: 120.0 mg/kg/injection, schedule: Q01DX005 (ip), vehicle: Klucel (hydroxypropylcellulose) (HPC)) was 94 % of control and the T/C (dose: 240.0 mg/kg/injection, schedule: Q01DX005 (ip), vehicle: Klucel (hydroxypropylcellulose) (HPC)) was 95 % of control.
With O=[N+]([O-])c1cc2c([N+](=O)[O-])cccc2o1 the T/C [1] was 102 % of control and the T/C [2] was 103 % of control.
With CC(C)NC(=O)OCc1c(COC(=O)NC(C)C)c(-c2ccc(Cl)cc2)n2c1CCC2 the T/C (dose: 3.12 mg/kg/injection, schedule: Q01DX005 (ip), vehicle: distilled water + Tween-80) was 161 % of control, the T/C (dose: 6.25 mg/kg/injection, schedule: Q01DX005 (ip), vehicle: distilled water + Tween-80) was 152 % of control and the T/C (dose: 12.5 mg/kg/injection, schedule: Q01DX005 (ip), vehicle: distilled water + Tween-80) was 186 % of control and 190 % of control. The T/C (dose: 25.0 mg/kg/injection, schedule: Q01DX005 (ip), vehicle: distilled water + Tween-80) was 186 % of control and the T/C (dose: 50.0 mg/kg/injection, schedule: Q01DX005 (ip), vehicle: distilled water + Tween-80) was 110 % of control and 93 % of control.
